The test system of data set [1] is MUC2 mRNA. Nature of the data set: MUC2 mRNA induction in intestinal epithelial cells (MUC2 mRNA/28S rRNA ratio). The data set is classed as cell-based, human. To be noted: for MUC2 mRNA/28S rRNA ratio, mean: conditions favoring MUC2 expression, peptides at conditions optimized for MUC3 (50 μg/ml, 30 min), control = 100. The source says:
(§1) These four peptides were used in a cell culture assay designed to evaluate them for their properties of inducing mucin (MUC) mRNA production, either MUC3 or MUC2 according to the methods described by Mack et al. (Biochem. Biophys. Res. Commun. 199: 1012-1018, 1994 and Am J Physiol. Vol. 4, part 1, pg. G841-950, 1999).
MUC2 Stimulation. To address whether the N-Terminal 10 amino acid bovine colostrum-SAA peptide would stimulate mRNA synthesis for MUC2 production, intestinal epithelial cells were cultured under conditions favoring MUC2 expression rather than MUC3. All peptides were used at concentrations and conditions that were previously optimized for MUC3 stimulation. None of the peptides stimulated the production of MUC2 mRNA. […] Additionally, conditions were changed to 2× the optimum MUC3 incubation time (1 hr). […] The evidence strongly indicates specificity of function in stimulating the production of a mucin produced mainly in the small intestine (MUC3) over one produced primarily in the large intestine (MUC2).

Data set [2] concerns MUC3 mRNA. Nature of the data set: MUC3 mRNA induction in intestinal epithelial cells (MUC3 mRNA/28S rRNA ratio). To be noted: for MUC3 mRNA/28S rRNA ratio, mean / MUC3 mRNA stimulation (in words): peptides at 50 μg/ml, 30 minutes at 37° C.; for MUC3 mRNA/28S rRNA ratio, mean / MUC3/28S rRNA ratio, mean: control = 100; for MUC3 mRNA stimulation (in words): versus control; for MUC3/28S rRNA ratio, mean: 30 min 37° C. Format: cell-based, human.
Excerpt: (§2) Different mucin genes have been identified and to date, thirteen human mucin genes have been identified. However, MUC3 mucin is the predominant small intestinal mucin. It has previously been shown that the MUC3 mucins are effective in preventing the adherence of enteropathogenic Escherichia coli (EPEC) to intestinal epithelial cells. […] It is also well known that breast-feeding infants are far less susceptible to infectious diarrhea than formula fed infants. There are a number of theories why this is so, but it is hypothesized that milk-associated amyloid (colostrum SAA) may be an important inducer of MUC3 gene expression. Applicant has evaluated MUC3 mRNA expression using an in vitro human cell culture assay system. […] To further explore this finding, Applicant has evaluated the functional specificity of the N-terminal peptide sequence of colostrum SAA by evaluation of MUC3 expression in the same in vitro assay using colostrum SAA N-terminal peptide sequences that have been randomly scrambled and a colostrum SAA peptide sequence downstream of the N-terminal sequence. If the expression of MUC3 is increased then intestinal cells grown in the presence of colostrum SAA should have a greater capacity to inhibit adherence of bacterial pathogens. This was studied (FIG. 2B) using EPEC in an in vitro assay system pre-incubated with colostrum SAA in the cell culture medium. Enteropathogenic E. coli are non-invasive, non-toxin producing pathogens that have been recognized as a significant cause of diarrhea in third world countries and in day care settings in developed countries. Future studies will evaluate the benefits of colostrum SAA in in vivo studies as well as characterized animal equivalent to human EPEC. Colostrum associated SAA provides a means to naturally upregulate the innate protective mechanisms of the human intestine and would provide a novel form of therapy to a common problem that occurs all too often in the third world leads to death of infants and in the developed world countries and leads to significant morbidity and cost. Thus, this is an effective, natural, non-drug/chemical therapy for all infectious diarrhea.
as §1
Intestinal epithelial cells, Mack et al. 1994, 1999, were exposed to the N-terminal 10 amino acid bovine colostrum-SAA peptide at various concentrations for 30 minutes incubation at 37° C. The cells were incubated an additional hour following replacement of the test medium with fresh medium without peptide and then the total cellular mRNA isolated and analyzed for MUC3 specific mRNA.
MUC3 stimulating activity of the N-terminal 10 amino acid bovine colostrum-SAA peptide was compared to the activity of the “Limited Scramble”, the “Total Scramble” and “C-Terminal peptides”. Optimum time and temperature of incubation and concentration of peptides was for 30 minutes at 37° C. at 50 μg/ml respectively.

Data set [3] has as its system EPEC adherence to HT29 human intestinal cells. Nature of the data set: Inhibition of EPEC adherence to HT29 cells (FIG. 4B). To be noted: before 10^6 CFU/well EPEC, 3 h incubation, P<0.03. Format: cell-based, enteropathogenic Escherichia coli. On the procedure:
FIG. 4B is a graph showing the comparative inhibition of EPEC adherence to HT29 human intestinal cells grown in a glucose-free galactose-containing cell culture medium to enhance MUC3 expression. Each well received either 10^9 CFU of the probiotic L. rhamnosus strain GG (LrGG), a single dose (1×) of the 10-mer peptide at 50 μg/mL (LS, Bov50, or Hum50) or at 250 μg/mL (Bov250 or Hum250), or two separate doses (2×) at 1 h intervals of the 10-mer peptide at 250 μg/mL. Samples were incubated at 37° C. with the HT29 cells for either a total of 1 h (single dose, 1×) or 2 h (two doses, 2×) prior to the addition of 10^6 CFU/well of EPEC. After a 3 h incubation, EPEC adherent to the HT29 cells were quantified by determining CFU/well. Results are expressed as means ±SEM of 2-6 independent experiments run in triplicate. Amino acid sequences for the 10-mer peptides are detailed in Table 1 referred to on page 37.
as §2, with “Colostrum associated SAA provides a means to naturally upregulate the innate protective mechanisms of the human intestine and would provide a novel form of therapy to a common problem that occurs all too often in the third world leads to death of infants and in the developed world countries and leads to significant morbidity and cost. Thus, this is an effective, natural, non-drug/chemical therapy for all infectious diarrhea.” left out

Data set [4] can be described thus: Isoelectric focusing / 2-D gel of SAA preparations. Format: physicochemical, bovine. The source says:
The PROTEIN IEF Cell (BioRad) was used for the isoelectric focusing of the various SAA preparations. Ready Strip IPG Strips (BioRad Laboratories) with a pH range of 3-10 were used for the IEF. The second dimension (2-D) of the protein analysis was done by subjecting the IPG strips to 12% SDS-PAGE gel and electroblotting onto a PVDF membrane. The strips and blots were done in duplicate so that one of the blots could be stained with a protein stain, Coomassie Brilliant Blue, (CBB) and the other stained with the anti-SAA monoclonal antibody for the identification of the SAA protein isoforms. The samples also contained internal IEF standards (BioRad Laboratories) so that isoelectric point (pI) of each SAA isoforms could be determined. By comparing the antibody stained spots to the spots of the standards stained with CBB the apparent pI of the SAA isoforms could be determined. All of these procedures were done according to the protocol recommended by the manufacturer.
The proteins subjected to the IEF and 2-D analysis were either affinity purified as described for the cell culture fluid or, in the case of the serum only semi-purified by hydrophobic chromatography. SAA is a highly hydrophobic molecule and will bind readily to Octyl Sepharose beads and then under the appropriate conditions can be eluted off the matrix. Briefly, serum with an elevated SAA level was tumbled for one hour with an equal volume of Octyl Sepharose CL-4B gel to allow for hydrophobic binding of the proteins from the serum to the gel. […]
The PROTEIN IEF Cell (BioRad) was used for the isoelectric focusing of the MAA preparations. […] Ready strip IPG Strips (BioRad Laboratories) with a pH range of 3-10 and 7-10 were used for the IEF. […] By comparing the spots stained with the antibody on the blot of the 2D gel from the MAA purified from colostrum and the MAA from the culture fluid of MAC-T cells stimulated with LPS, the similarities of the isoforms could be determined. Each sample was first analyzed on a pH 3-10 IPG strip for the first dimension of separation and then a subsequent sample analyzed on a pH 7-10 IPG strip.

For the molecule “GKFAWEGMTL [Total Scramble, control peptide, amino acids of the entire N-Terminal peptide arranged in random order, reference compound]”, in data set [1], the “MUC2 mRNA/28S rRNA ratio, mean” value was 65.833. For the same molecule, the “MUC3 mRNA/28S rRNA ratio, mean” value in data set [2] came out at 109.333.
For the molecule GWLTFLKAAG [Hum], the “EPEC adherence to HT29 cells relative to untreated cells (in words)” value in data set [3] (10-mer peptide at 50 μg/mL) and in data set [3] (10-mer peptide at 250 μg/mL) was “significantly decreased adherence of EPEC” throughout.
With “MWGLTKFEAG [Limited Scramble, Bovine MAA with TFLK motif scrambled]”, the “MUC2 mRNA/28S rRNA ratio, mean” value in data set [1] came to 87.167. Also, in data set [2], the “MUC3 mRNA/28S rRNA ratio, mean” value amounted to 95.000 and the “MUC3 mRNA stimulation (in words)” value was “lack of stimulation”.
Take MWGTFLKEAG [N-terminal]: the “MUC2 mRNA stimulation (in words)” value in data set [1] (100 and 500 μg/ml, and 2× incubation time (1 hr)) is “None of these changes resulted in MUC2 mRNA increase over control values”; in data set [1] (concentrations and conditions optimized for MUC3 stimulation), “not significantly different”. Also, the “MUC2 mRNA/28S rRNA ratio, mean” value in data set [1] amounted to 101.167. The “optimum concentration for MUC3 mRNA stimulation” value in data set [2] (30 minutes incubation at 37° C.) came to 50 µg/mL. In addition, the “MUC3/28S rRNA ratio, mean” value was 105.429 in data set [2] (peptide concentration 1 (μg/ml)); 105.857 in data set [2] (peptide concentration 10 (μg/ml)); 145.000 in data set [2] (peptide concentration 25 (μg/ml)); 220.500 in data set [2] (peptide concentration 50 (μg/ml)); 103.125 in data set [2] (peptide concentration 100 (μg/ml)). In data set [2], the “MUC3 mRNA/28S rRNA ratio, mean” value turned out to be 174.833. Further, the figures for the “MUC3 mRNA stimulation (in words)” value in data set [2] and in data set [2] (listed as N-Terminal) were “increased MUC3 mRNA expression” and “the only peptide that stimulated MUC3 mRNA statistically significantly over the control values”, respectively. Also, the “EPEC adherence to HT29 cells relative to untreated cells (in words)” value in data set [3] (10-mer peptide at 50 μg/mL) and in data set [3] (10-mer peptide at 250 μg/mL) was “significantly decreased adherence of EPEC” in each case.
As to “SAADAAQRGPQQA [C-terminal, control 10 amino acid peptide in which the first 7 were from residues 62-69 of bovine SAA, reference compound]”, the “MUC2 mRNA/28S rRNA ratio, mean” value in data set [1] was determined as 67.500. Also, in data set [2], the “MUC3 mRNA/28S rRNA ratio, mean” value worked out at 111.333.

B1: colostrum-SAA: bovine mammary-associated serum amyloid A 3, purified from colostrum or MAC-T cell culture fluid (protein)
chain: QRWGTFLKEAGQGAKDMWRAYQDMKEANYRGADKYFHARGNYDAARRGPGGAWAAKVISNARETIQGITDPLFKGMTRDQVREDSKADQFANEWGRSGKDPNHFRPAGLPDKY
On to B1, for which the pI result in data set [4] (from both colostrum and MAC-T cell culture fluid (prolactin), pH 3-10 IPG strips) is given as “greater than 8”; in data set [4] (purified from culture fluid of MAC-T cells stimulated with LPS, only one isoform, pH 3-10 and 7-10 IPG strips), 9.4-9.6. Further, in data set [4] (pH 3-10 IPG strips, internal IEF standards), the “apparent pI” value is 9.4-9.6.
